Reference: patent US10201586B2 (dated 2019)
Blank lines part the entries; values can stand above or below the compound they belong to. Where a SMILES comes first, the peptide text is derived from it. [ ]: non-standard residue; d: D form. Tle = CC(C)(C)[C@H](N)C(=O)O; Aib = CC(C)(N)C(=O)O

Experiments:
TFPI [1] = biological target: T1, TFPI (Homo sapiens, UniProt P10646); test: IC50 [nM]
TFPI [2] = biological target: T1, TFPI; test: IC50 Mean (nM]
C57B1/6NCr1 mice = test: nail clip blood loss study; type: in vivo, mouse
FVIII knock-out mice = conditions: 1 mg/kg JBT2329 without ADVATE
[3] = pharmacokinetic analysis in mice; type: in vivo, mouse; conditions: C57B16 mice, 1 mg/kg (peptide content)
FIX knock-out mice = test: tail-tip bleed model; type: in vivo, mouse
Protocol: The amount of blood was determined gravimetrically.
JBT2329 also was tested in a FIX knock-out tail-tip bleed mouse model, which is a clinically-relevant model for hemophilia B human patients. The methodology was substantially similar to that described above with respect to the FVIII knock-out model. Instead of ADVATE, a recombinant FIX (rFIX) served as a reference. Median total blood loss in buffer-treated animals was 935 mg. Median total blood loss in animals treated with a murine anti-TFPI antibody (maTFPI) was 774 mg. Median total blood loss was reduced further when the animals received combined treatment of maTFPI and rFIX.

[4] = system: human whole blood clot formation; test: rotation thromboelastography (ROTEM); conditions: Hem A (FVIII-inhibited) human whole blood
[5] = plasma stability in human plasma; type: in vitro ADME; conditions: 24 hour
[6] = biological target: Tissue Factor Pathway Inhibitor (TFPI) (Homo sapiens, UniProt P10646); test: IC50 ELISA | IC50 [nM]
Sequence of Tissue Factor Pathway Inhibitor (TFPI) (P10646 29-304 limits assumed): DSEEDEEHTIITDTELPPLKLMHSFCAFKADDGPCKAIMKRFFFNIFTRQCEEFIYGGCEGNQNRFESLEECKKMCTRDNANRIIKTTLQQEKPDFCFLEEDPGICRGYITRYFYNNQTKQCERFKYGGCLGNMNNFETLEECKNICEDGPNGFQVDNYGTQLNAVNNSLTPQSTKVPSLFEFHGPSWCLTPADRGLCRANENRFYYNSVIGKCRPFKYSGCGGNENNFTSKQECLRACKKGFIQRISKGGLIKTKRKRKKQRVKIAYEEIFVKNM

TFPI [7] = biological target: T1, TFPI; test: IC50 [nM]; remark: listed apart in the source

T1 sequence (P10646 29-304 limits assumed): as above

IC50 (TFPI [1]): 12.9 µM
Compound: CC[C@H](C)[C@H](NC(=O)[C@H](CCC(=O)O)NC(=O)[C@H](CCCCN)NC(=O)[C@H](CO)NC(=O)[C@H](CCCNC(=N)N)NC(=O)[C@H](CCCCN)NC(=O)[C@H](CO)NC(=O)[C@@H](NC(=O)[C@H](Cc1c[nH]cn1)NC(=O)[C@H](CC(C)C)NC(=O)[C@H](CCC(N)=O)NC(=O)[C@@H](NC(=O)[C@H](C)NC(=O)[C@H](CCC(N)=O)NC(=O)[C@H](Cc1c[nH]c2ccccc12)NC(=O)[C@H](Cc1ccccc1)NC(=O)[C@H](CO)NC(=O)[C@H](C)NC(=O)[C@H](Cc1ccc(O)cc1)NC(=O)CNC(C)=O)C(C)C)C(C)C)C(=O)N[C@@H](C)C(N)=O [JBT1663 | 2146] (Ac-GYASFWQAVQLHVSKRSKEIA-NH2)

IC50 (TFPI [2]): > 50 µM
Compound: CC[C@H](C)[C@H](NC(=O)[C@@H](NC(=O)CNC(=O)[C@@H]1CCCN1C(=O)CNC(=O)[C@H](Cc1c[nH]c2ccccc12)NC(=O)[C@@H](NC(=O)[C@@H](NC(=O)[C@H](CCCCN)NC(=O)[C@H](CO)NC(=O)[C@H](Cc1c[nH]c2ccccc12)NC(=O)[C@H](Cc1ccccc1)NC(=O)[C@H](Cc1ccc(O)cc1)NC(=O)[C@@H](NC(=O)[C@H](Cc1c[nH]c2ccccc12)NC(=O)[C@H](CC(=O)O)NC(=O)CNC(=O)[C@@H](NC(=O)[C@H](CC(C)C)NC(=O)[C@H](CCCCN)NC(=O)[C@H](CCCCN)NC(C)=O)[C@@H](C)O)[C@@H](C)O)C(C)C)[C@@H](C)CC)C(C)C)C(=O)N[C@@H](CCC(=O)O)C(=O)N[C@@H](CCCNC(=N)N)C(=O)N[C@@H](CCC(N)=O)C(=O)N[C@@H](CCSC)C(=O)N1CCC[C@H]1C(=O)N[C@H](C(=O)N[C@@H](CO)C(=O)N[C@H](C(=O)N[C@@H](Cc1ccccc1)C(=O)N[C@@H](Cc1c[nH]cn1)C(=O)N[C@@H](CCCCN)C(=O)N[C@@H](CCCCN)C(N)=O)[C@@H](C)O)C(C)C [JBT0177* | 3065] (Ac-KKLTGDWTYFWSKVIWGPGVIERQMPVSTFHKK-NH2)

Compound: Ac-FQSKpNVHVDGYFERL-Aib-AKLC(PEG)-NH2 [JBT2329]
blood loss, second 30 minute period (C57B1/6NCr1 mice; 0.1 mg/kg i.v.): 18.7 µL | reduction of blood loss vs vehicle, first 30 minutes (C57B1/6NCr1 mice; 0.1 mg/kg i.v.): about 50% | reduction of blood loss vs vehicle, second 30 minute period (C57B1/6NCr1 mice; 0.1 mg/kg i.v.): about 64% | reduction of total blood loss over 60 minutes vs vehicle (C57B1/6NCr1 mice; 0.1 mg/kg i.v.): ~60% | total blood loss over 60 minutes (C57B1/6NCr1 mice; 0.1 mg/kg i.v.): 34.7 µL | blood loss, first 30 minutes (C57B1/6NCr1 mice; 0.1 mg/kg i.v., naive C57BL6 mice): 16.0 µL | blood loss, entire 60 minute collection period (C57B1/6NCr1 mice; 1.0 mg/kg i.v.): 22.8 µL | blood loss, first 30 minutes (C57B1/6NCr1 mice; 1.0 mg/kg i.v.): 12.2 µL | blood loss, second 30 minute period (C57B1/6NCr1 mice; 1.0 mg/kg i.v.): 10.6 µL | reduction of blood loss during 60 minutes vs vehicle (C57B1/6NCr1 mice; 10 mg/kg subcutaneous): approximately 58% | median total blood loss vs buffer (FVIII knock-out mice): did not reduce median total blood loss | HL_λ_z [h] (intravenous) ([3]; intravenous): 19.8 h | Bioavailability [%] (s.c.) ([3]; s.c. AUC vs i.v. AUC): 73.3% | median total blood loss vs buffer (FIX knock-out mice; 1 mg/kg JBT2329 alone (p=0.321)): did not lead to a significant reduction in median total blood loss | Efficacy vs buffer at a […] level (FIX knock-out mice; JBT2329 1 mg/kg or 0.1 mg/kg in combination with 10 IU/kg rFIX): statistically significant superiority over buffer | coagulation parameters [4]: restored prolonged coagulation parameters in Hem A blood | Human Plasma Stability, 24 hour (%) [5]: 67.3%

IC50 [6]: 0.0105 µM
Compound: CC(=O)N[C@@H](Cc1ccccc1)C(=O)N[C@@H](CCC(N)=O)C(=O)N[C@@H](CC(=O)O)C(=O)N[C@@H](CCCCN)C(=O)N1CCC[C@@H]1C(=O)N[C@@H](CC(N)=O)C(=O)N[C@H](C(=O)N[C@@H](Cc1c[nH]cn1)C(=O)N[C@H](C(=O)N[C@@H](CC(=O)O)C(=O)NCC(=O)N[C@@H](Cc1ccc(O)cc1)C(=O)N[C@@H](Cc1ccccc1)C(=O)N[C@@H](CCC(=O)O)C(=O)N[C@@H](CCCNC(=N)N)C(=O)N[C@@H](CC(C)C)C(=O)NC(C)(C)C(=O)N[C@@H](C)C(=O)N[C@@H](CCCCN)C(=O)N[C@@H](CC(C)C)C(N)=O)C(C)(C)C)C(C)C [JBT2426 | 4144, Ac-FQDKpNVH-Tle-DGYFERL-Aib-AKL-NH2] (Ac-FQDK[dP]NVH[Tle]DGYFERL[Aib]AKL-NH2)

IC50 (TFPI [7]): 17 µM
Compound: CSCC[C@H](NC(=O)[C@H](CCC(=O)O)NC(=O)[C@H](CCCCN)NC(=O)[C@H](CO)NC(=O)[C@H](CCCNC(=N)N)NC(=O)[C@H](CCCCN)NC(=O)[C@H](CO)NC(=O)[C@@H](NC(=O)[C@H](Cc1c[nH]cn1)NC(=O)[C@H](CC(C)C)NC(=O)[C@H](CCC(N)=O)NC(=O)[C@@H](NC(=O)[C@H](C)NC(=O)[C@H](CC(C)C)NC(=O)[C@@H]1CCCN1C(=O)[C@H](CCCCN)NC(=O)[C@H](CCCCN)NC(C)=O)C(C)C)C(C)C)C(=O)N[C@@H](C)C(=O)N[C@@H](CC(C)C)C(=O)N[C@@H](C)C(=O)N[C@@H](CCCNC(=N)N)C(=O)N[C@@H](CC(C)C)C(=O)N[C@@H](Cc1ccc(O)cc1)C(=O)N[C@@H](Cc1ccc(O)cc1)C(=O)N[C@@H](CCCCN)C(=O)N[C@H](C(=O)N[C@@H](CO)C(=O)N[C@@H](CCCCN)C(=O)N[C@@H](CCCCN)C(N)=O)[C@@H](C)O [JBT0229 | 2129] (Ac-KKPLAVQLHVSKRSKEMALARLYYKTSKK-NH2)
